ChEMBL document CHEMBL3885881, “DrugMatrix”

Species on record: Rattus norvegicus
Experiment: DrugMatrix - Regimen: Daily Repeat
Format: toxicity, organism-based, Sprague-Dawley
Design: regimen Daily Repeat, gender Male, age 6-8 weeks
Settings: in vivo, po, route oral GAVAGE, […]; for ABSOLUTE BASOPHIL / ABSOLUTE EOSINOPHIL / ABSOLUTE LYMPHOCYTE / ABSOLUTE MONOCYTE / ABSOLUTE SEGMENTED NEUTROPHIL / BASOPHIL / EOSINOPHIL / ERYTHROCYTE COUNT / HEMATOCRIT / HEMOGLOBIN / LEUKOCYTE COUNT / LYMPHOCYTE / MEAN CORPUSCULAR HEMOGLOBIN / MEAN CORPUSCULAR HEMOGLOBIN CONCENTRATION / MEAN CORPUSCULAR VOLUME / MONOCYTE / NEUTROPHIL / NUCLEATED RED BLOOD CELLS / PLATELET COUNT: tissue Blood; for ALANINE AMINOTRANSFERASE / ALBUMIN / ALKALINE PHOSPHATASE / ASPARTATE AMINOTRANSFERASE / BLOOD UREA NITROGEN / CARBON DIOXIDE / CHLORIDE / CHOLESTEROL / CREATINE PHOSPHOKINASE / CREATININE / GLUCOSE / LACTATE DEHYDROGENASE / LIPASE / PHOSPHORUS / POTASSIUM / SODIUM / TOTAL BILIRUBIN / TOTAL PROTEIN / URIC ACID: tissue Plasma
[1] = 0 mg/kg, 72 h, dose level Control, time 3 day
[2] = 0 mg/kg, 120 h, dose level Control, time 5 day
[3] = 80 mg/kg, 72 h, dose level Low, time 3 day

CC(C)(Oc1ccc(C2CCCc3ccccc32)cc1)C(=O)O (centres undefined) [NAFENOPIN]
ABSOLUTE BASOPHIL [1]: 0 CELLS/uL | ABSOLUTE EOSINOPHIL [1]: 47.67 CELLS/uL | ABSOLUTE LYMPHOCYTE [1]: 11079 CELLS/uL | ABSOLUTE MONOCYTE [1]: 251.67 CELLS/uL | ABSOLUTE SEGMENTED NEUTROPHIL [1]: 1505 CELLS/uL | BASOPHIL [1]: 0% | EOSINOPHIL [1]: 0.33% | ERYTHROCYTE COUNT [1]: 5.31 x10E6/uL | HEMATOCRIT [1]: 32.87% | HEMOGLOBIN [1]: 12.27 G/DL | LEUKOCYTE COUNT [1]: 12.88 x10E3/uL | LYMPHOCYTE [1]: 86.17% | MEAN CORPUSCULAR HEMOGLOBIN [1]: 23.2 pg | MEAN CORPUSCULAR HEMOGLOBIN CONCENTRATION [1]: 37.37 G/DL | MEAN CORPUSCULAR VOLUME [1]: 62.03 fL | MONOCYTE [1]: 2% | NEUTROPHIL [1]: 11.5% | NUCLEATED RED BLOOD CELLS [1]: 0 /100WBC | PLATELET COUNT [1]: 956.5 x10E3/uL | ALANINE AMINOTRANSFERASE [1]: 69.67 u/L | ALBUMIN [1]: 4.15 G/DL | ALKALINE PHOSPHATASE [1]: 415.33 u/L | ASPARTATE AMINOTRANSFERASE [1]: 93.17 u/L | BLOOD UREA NITROGEN [1]: 17.33 mg/dL | CARBON DIOXIDE [1]: 27.33 mmol/L | CHLORIDE [1]: 100.17 MEQ/L | CHOLESTEROL [1]: 76.5 mg/dL | CREATINE PHOSPHOKINASE [1]: 587 u/L | CREATININE [1]: 0.25 mg/dL | GLUCOSE [1]: 155.5 mg/dL | LACTATE DEHYDROGENASE [1]: 343.5 u/L | LIPASE [1]: 11.17 u/L | PHOSPHORUS [1]: 11.77 mg/dL | POTASSIUM [1]: 6.51 MEQ/L | SODIUM [1]: 140.93 MEQ/L | TOTAL BILIRUBIN [1]: 0.2 mg/dL | TOTAL PROTEIN [1]: 5.87 G/DL | URIC ACID [1]: 1.43 mg/dL | ABSOLUTE BASOPHIL [2]: 0 CELLS/uL | ABSOLUTE EOSINOPHIL [2]: 22.67 CELLS/uL | ABSOLUTE LYMPHOCYTE [2]: 12729.33 CELLS/uL | ABSOLUTE MONOCYTE [2]: 424.67 CELLS/uL | ABSOLUTE SEGMENTED NEUTROPHIL [2]: 2006.67 CELLS/uL | BASOPHIL [2]: 0% | EOSINOPHIL [2]: 0.17% | ERYTHROCYTE COUNT [2]: 5.48 x10E6/uL | HEMATOCRIT [2]: 33.32% | HEMOGLOBIN [2]: 12.73 G/DL | LEUKOCYTE COUNT [2]: 15.18 x10E3/uL | LYMPHOCYTE [2]: 83.83% | MEAN CORPUSCULAR HEMOGLOBIN [2]: 23.25 pg | MEAN CORPUSCULAR HEMOGLOBIN CONCENTRATION [2]: 38.22 G/DL | MEAN CORPUSCULAR VOLUME [2]: 60.85 fL | MONOCYTE [2]: 2.83% | NEUTROPHIL [2]: 13.17% | NUCLEATED RED BLOOD CELLS [2]: 0 /100WBC | PLATELET COUNT [2]: 909.83 x10E3/uL | ALANINE AMINOTRANSFERASE [2]: 57.67 u/L | ALBUMIN [2]: 4.03 G/DL | ALKALINE PHOSPHATASE [2]: 472.33 u/L | ASPARTATE AMINOTRANSFERASE [2]: 80.83 u/L | BLOOD UREA NITROGEN [2]: 14.67 mg/dL | CARBON DIOXIDE [2]: 31.83 mmol/L | CHLORIDE [2]: 96 MEQ/L | CHOLESTEROL [2]: 68 mg/dL | CREATINE PHOSPHOKINASE [2]: 281.67 u/L | CREATININE [2]: 0.19 mg/dL | GLUCOSE [2]: 147.33 mg/dL | LACTATE DEHYDROGENASE [2]: 210.83 u/L | LIPASE [2]: 11 u/L | PHOSPHORUS [2]: 11.63 mg/dL | POTASSIUM [2]: 6.06 MEQ/L | SODIUM [2]: 139.37 MEQ/L | TOTAL BILIRUBIN [2]: 0.17 mg/dL | TOTAL PROTEIN [2]: 5.82 G/DL | URIC ACID [2]: 1.12 mg/dL | ABSOLUTE BASOPHIL [3]: 0 CELLS/uL | ABSOLUTE EOSINOPHIL [3]: 91 CELLS/uL | ABSOLUTE LYMPHOCYTE [3]: 10987.33 CELLS/uL | ABSOLUTE MONOCYTE [3]: 229 CELLS/uL | ABSOLUTE SEGMENTED NEUTROPHIL [3]: 2392.67 CELLS/uL | BASOPHIL [3]: 0% | EOSINOPHIL [3]: 0.67% | ERYTHROCYTE COUNT [3]: 5.31 x10E6/uL | HEMATOCRIT [3]: 33.1% | HEMOGLOBIN [3]: 12.4 G/DL | LEUKOCYTE COUNT [3]: 13.7 x10E3/uL | LYMPHOCYTE [3]: 80.33% | MEAN CORPUSCULAR HEMOGLOBIN [3]: 23.37 pg | MEAN CORPUSCULAR HEMOGLOBIN CONCENTRATION [3]: 37.47 G/DL | MEAN CORPUSCULAR VOLUME [3]: 62.37 fL | MONOCYTE [3]: 1.67% | NEUTROPHIL [3]: 17.33% | NUCLEATED RED BLOOD CELLS [3]: 0 /100WBC | PLATELET COUNT [3]: 1097 x10E3/uL | ALANINE AMINOTRANSFERASE [3]: 88 u/L | ALBUMIN [3]: 4.7 G/DL | ALKALINE PHOSPHATASE [3]: 593 u/L | ASPARTATE AMINOTRANSFERASE [3]: 109.67 u/L | BLOOD UREA NITROGEN [3]: 15.33 mg/dL | CARBON DIOXIDE [3]: 25.67 mmol/L | CHLORIDE [3]: 102.33 MEQ/L | CHOLESTEROL [3]: 44.33 mg/dL | CREATINE PHOSPHOKINASE [3]: 372 u/L | CREATININE [3]: 0.23 mg/dL | GLUCOSE [3]: 141 mg/dL | LACTATE DEHYDROGENASE [3]: 370.67 u/L | LIPASE [3]: 10.67 u/L | PHOSPHORUS [3]: 12.4 mg/dL | POTASSIUM [3]: 6.4 MEQ/L | SODIUM [3]: 144.37 MEQ/L | TOTAL BILIRUBIN [3]: 0.1 mg/dL | TOTAL PROTEIN [3]: 5.57 G/DL | URIC ACID [3]: 1.3 mg/dL
